Converted amounts (≈) assume the structure as drawn. Where a SMILES comes first, the peptide text is derived from it. Bridges are numbered along the chain shown (N, C = ends). Roman numbers before positions name the chains, in order. [ ]: non-standard residue; d: D form. The star is where a group is joined. Tyrosinol = OC[C@H](Cc1ccc(O)cc1)N*; Thr(ol) = C[C@@H](O)[C@H](N)CO; Tle = CC(C)(C)[C@H](N)C(=O)O; Hiv = CC(C)[C@H](O)C(=O)O; dDab = NCC[C@@H](N)C(=O)O; hSer = N[C@@H](CCO)C(=O)O; NHCH(CH2OH)2 = OCC(CO)N*; Dab = NCC[C@H](N)C(=O)O; Dap = NC[C@H](N)C(=O)O
Experiments:
[1] = tested on: Acinetobacter baumannii 872842; format: cell-based; details: 872842
Method in brief: (§1)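 CLSI broth microdilution in cation-adjusted Mueller-Hinton II broth with 0.002% polysorbate 80 (final), inoculum appr. 10^6 CFU/mL, peptides in serial two-fold dilutions. MIC (μg/mL) is the lowest concentration without visible growth after 18-20 h at 35° C.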

[2] = tested on: Acinetobacter baumannii DSM 30008; format: cell-based; details: DSM 30008
Method in brief: as §1

[3] = tested on: Enterobacter cloacae 848840; format: cell-based; details: 848840
Method in brief: as §1

[4] = tested on: Escherichia coli 926415; format: cell-based; details: 926415
Method in brief: as §1

[5] = tested on: Escherichia coli ATCC 25922; format: cell-based; details: ATCC 25922
Method in brief: as §1

[6] = tested on: Klebsiella pneumoniae 968733; format: cell-based; details: 968733
Method in brief: as §1

[7] = tested on: Klebsiella pneumoniae SSI #3010; format: cell-based; details: SSI #3010
Method in brief: as §1

[8] = tested on: Pseudomonas aeruginosa ATCC 27853; format: cell-based; details: ATCC 27853
Method in brief: as §1

[9] = tested on: human red blood cells (hRBC); test: Hemolysis; format: cell-based; details: red cells of human, 1 h, 200
Method in brief: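 Percent lysis of human red cells was derived from OD540 of the supernatant, referenced to 2% Triton X-100, after a 1 h, 37° C incubation of 20% (v/v) cells with 200 μg/mL peptide.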

[10] = tested on: male ICR mice; test: Tolerability in a mouse model (Maximum Tolerated Dose assay); format: in vivo; details: 2 × 30 mg/kg s.c. at a 12-hr interval, groups of 3
Procedure: The tolerability of the peptides was tested in a mouse model at Pharmacology Discovery Services Taiwan Ltd, Taipei, Taiwan. The peptides were administered subcutaneously (s.c.) at 30 mg/kg or 40 mg/kg, respectively; twice at a 12-hr interval, for assessment of possible adverse effects in the Maximum Tolerated Dose (MTD) assay in male ICR (Institute of Cancer Research) mice. The peptides were dissolved in 0.9% NaCl at the concentrations either of 6 or 8 mg/mL, respectively, based on the free base molecular weight. The pH values of dosing solutions were adjusted to 6.5-7.6 before s.c. administration. A dosing volume at 5 mL/kg and a concentration of 6 or 8 mg/mL, respectively, was applied. The fresh prepared stock solution were stored at 4° C. during the study. Male ICR mice weighing 23±3 g were provided by BioLasco Taiwan (under Charles River Laboratories Licensee). Animals were acclimated for 3 days prior to use and were confirmed to be in good health. The peptides were administered s.c. at 30 mg/kg or 40 mg/kg, respectively, twice at a 12-hr interval, to groups of 3 ICR male mice and observed for the presence of acute toxic symptoms (mortality, convulsions, tremors, muscle relaxation, sedation, etc.) and autonomic effects (diarrhea, salivation, lacrimation, vasodilation, piloerection, etc.) during the first 30 min. The peptides were administered again at a 12-hr (two total doses) interval, following the first dose. The animals were then observed again for the presence of acute toxic symptoms and autonomic effects during the first 30 min.

SMILES	MIC [1] [µg/mL]	MIC [2] [µg/mL]	MIC [3] [µg/mL]	MIC [4] [µg/mL]	MIC [5] [µg/mL]	MIC [6] [µg/mL]	MIC [7] [µg/mL]	MIC [8] [µg/mL]	Hemolysis at 200 μg/mL [9] [%]	Mortality and dose [10]
CC(C)C[C@@H]1NC(=O)[C@@H](CC(C)C)NC(=O)[C@H](CCN)NC(=O)[C@@H](NC(=O)[C@H](CCN)NC(=O)[C@@H](NC(=O)[C@H](CCN)NC(=O)CC[C@@H]2NC(=O)[C@H](CN)NC(=O)[C@H](Cc3ccc(O)cc3)NC(=O)[C@@H](NC(=O)[C@@H](O)C(C)C)CSSC[C@@H](C(=O)N[C@H](CO)[C@@H](C)O)NC(=O)[C@H](C(C)(C)C)NC(=O)[C@H](CO)NC(=O)[C@H](Cc3c[nH]c4ccccc34)NC(=O)[C@H]([C@@H](C)O)NC(=O)[C@@H](CCN)NC2=O)[C@@H](C)O)CCNC(=O)[C@H]([C@@H](C)O)NC(=O)[C@H](CCN)NC(=O)[C@H](CCN)NC1=O [Ex. 58] (I: H-[Hiv]CY[Dap]E[dDab]TWS[Tle]C[Thr(ol)] / II: [Dab]T[Dab][Dab][Dab][dL]L[Dab][Dab]T; disulfide I:2-I:11; amide I:5-II:N; lactam II:4-II:C)	0.0625 (≈ 0.0262 µM)	0.0625 (≈ 0.0262 µM)	0.125 (≈ 0.0524 µM)	0.125 (≈ 0.0524 µM)	0.0625 (≈ 0.0262 µM)	0.25 (≈ 0.105 µM)	0.125 (≈ 0.0524 µM)	0.25 (≈ 0.105 µM)	1	0/3 died at 2 × 30 mg/kg
CC(=O)N[C@H](C(=O)N[C@H]1CSSC[C@@H](C(=O)N[C@@H](Cc2ccc(O)cc2)C(N)=O)NC(=O)[C@H](C(C)C)NC(=O)[C@H](CO)NC(=O)[C@H](Cc2c[nH]c3ccccc23)NC(=O)[C@H](CCO)NC(=O)[C@@H](CCN)NC(=O)[C@H](CCC(=O)N[C@@H](CCN)C(=O)N[C@H](C(=O)N[C@@H](CCN)C(=O)N[C@H]2CCNC(=O)[C@H]([C@@H](C)O)NC(=O)[C@H](CCN)NC(=O)[C@H](CCN)NC(=O)[C@H](CC(C)C)NC(=O)[C@@H](CC(C)C)NC(=O)[C@H](CCN)NC2=O)[C@@H](C)O)NC(=O)[C@H](CCN)NC(=O)[C@H](CO)NC1=O)C(C)C [Ex. 65] (I: Ac-VCS[Dab]E[dDab][hSer]WSVCY-NH2 / II: [Dab]T[Dab][Dab][Dab][dL]L[Dab][Dab]T; disulfide I:2-I:11; amide I:5-II:N; lactam II:4-II:C)	0.25 (≈ 0.103 µM)	0.125 (≈ 0.0515 µM)	4 (≈ 1.65 µM)	0.5 (≈ 0.206 µM)	0.125 (≈ 0.0515 µM)	0.5 (≈ 0.206 µM)	0.25 (≈ 0.103 µM)	0.125 (≈ 0.0515 µM)	<1	0/3 died at 2 × 30 mg/kg
CC(C)C[C@@H]1NC(=O)[C@@H](CC(C)C)NC(=O)[C@H](CCN)NC(=O)[C@@H](NC(=O)[C@H](CCN)NC(=O)[C@@H](NC(=O)[C@H](CCN)NC(=O)CC[C@@H]2NC(=O)[C@H](CCN)NC(=O)[C@H](C(C)C)NC(=O)[C@@H](NC(=O)[C@@H](O)C(C)C)CSSC[C@@H](C(=O)N[C@H](CO)Cc3ccc(O)cc3)NC(=O)[C@H](C(C)(C)C)NC(=O)[C@H](CO)NC(=O)[C@H](Cc3c[nH]c4ccccc34)NC(=O)[C@H](CCO)NC(=O)[C@@H](CCN)NC2=O)[C@@H](C)O)CCNC(=O)[C@H]([C@@H](C)O)NC(=O)[C@H](CCN)NC(=O)[C@H](CCN)NC1=O [Ex. 92] (I: H-[Hiv]CV[Dab]E[dDab][hSer]WS[Tle]C-Tyrosinol / II: [Dab]T[Dab][Dab][Dab][dL]L[Dab][Dab]T; disulfide I:2-I:11; amide I:5-II:N; lactam II:4-II:C)	0.125 (≈ 0.0521 µM)	0.125 (≈ 0.0521 µM)	0.25 (≈ 0.104 µM)	0.0625 (≈ 0.0261 µM)	0.0625 (≈ 0.0261 µM)	0.125 (≈ 0.0521 µM)	0.0625 (≈ 0.0261 µM)	0.125 (≈ 0.0521 µM)	<1	0/3 died at 2 × 30 mg/kg
CC(=O)N[C@@H](Cc1ccc(O)cc1)C(=O)N[C@H]1CSSC[C@@H](C(=O)NC(CO)CO)NC(=O)[C@H](C(C)(C)C)NC(=O)[C@H](CO)NC(=O)[C@H](Cc2c[nH]c3ccccc23)NC(=O)[C@H](CCO)NC(=O)[C@@H](CCN)NC(=O)[C@H](CCC(=O)N[C@@H](CCN)C(=O)N[C@H](C(=O)N[C@@H](CCN)C(=O)N[C@H]2CCNC(=O)[C@H]([C@@H](C)O)NC(=O)[C@H](CCN)NC(=O)[C@H](CCN)NC(=O)[C@H](CC(C)C)NC(=O)[C@@H](CC(C)C)NC(=O)[C@H](CCN)NC2=O)[C@@H](C)O)NC(=O)[C@H](CCN)NC(=O)[C@H](C(C)C)NC1=O [Ex. 96] (I: Ac-YCV[Dab]E[dDab][hSer]WS[Tle]C-{NHCH(CH2OH)2} / II: [Dab]T[Dab][Dab][Dab][dL]L[Dab][Dab]T; disulfide I:2-I:11; amide I:5-II:N; lactam II:4-II:C)	0.5 (≈ 0.206 µM)	0.125 (≈ 0.0515 µM)	8 (≈ 3.3 µM)	0.5 (≈ 0.206 µM)	0.0625 (≈ 0.0257 µM)	0.125 (≈ 0.0515 µM)	0.125 (≈ 0.0515 µM)	0.125 (≈ 0.0515 µM)	<1	0/3 died at 2 × 30 mg/kg
CC(=O)N[C@H](C(=O)N[C@H]1CSSC[C@@H](C(=O)N[C@@H](CO)C(N)=O)NC(=O)[C@H](C(C)(C)C)NC(=O)[C@H](CO)NC(=O)[C@H](Cc2c[nH]c3ccccc23)NC(=O)[C@H](CO)NC(=O)[C@@H](CCN)NC(=O)[C@H](CCC(=O)N[C@@H](CCN)C(=O)N[C@H](C(=O)N[C@@H](CN)C(=O)N[C@H]2CCNC(=O)[C@H]([C@@H](C)O)NC(=O)[C@H](CCN)NC(=O)[C@H](CCN)NC(=O)[C@H](CC(C)C)NC(=O)[C@@H](CC(C)C)NC(=O)[C@H](CCN)NC2=O)[C@@H](C)O)NC(=O)[C@H](CCN)NC(=O)[C@H](Cc2ccc(O)cc2)NC1=O)C(C)C [Ex. 114] (I: Ac-VCY[Dab]E[dDab]SWS[Tle]CS-NH2 / II: [Dab]T[Dap][Dab][Dab][dL]L[Dab][Dab]T; disulfide I:2-I:11; amide I:5-II:N; lactam II:4-II:C)	0.03125 (≈ 0.013 µM)	0.0625 (≈ 0.0259 µM)	0.0625 (≈ 0.0259 µM)	0.0625 (≈ 0.0259 µM)	0.03125 (≈ 0.013 µM)	0.0625 (≈ 0.0259 µM)	0.0625 (≈ 0.0259 µM)	0.125 (≈ 0.0518 µM)	<1	0/3 died at 2 × 30 mg/kg
CC(C)C[C@@H]1NC(=O)[C@@H](CC(C)C)NC(=O)[C@H](CCN)NC(=O)[C@@H](NC(=O)[C@H](CN)NC(=O)[C@@H](NC(=O)[C@H](CCN)NC(=O)CC[C@@H]2NC(=O)[C@H](CCN)NC(=O)[C@H](Cc3ccc(O)cc3)NC(=O)[C@@H](NC(=O)[C@@H](O)C(C)C)CSSC[C@@H](C(=O)N[C@@H](CO)C(N)=O)NC(=O)[C@H](C(C)C)NC(=O)[C@H](CO)NC(=O)[C@H](Cc3c[nH]c4ccccc34)NC(=O)[C@H](CO)NC(=O)[C@@H](CCN)NC2=O)[C@@H](C)O)CCNC(=O)[C@H]([C@@H](C)O)NC(=O)[C@H](CCN)NC(=O)[C@H](CCN)NC1=O [Ex. 115] (I: H-[Hiv]CY[Dab]E[dDab]SWSVCS-NH2 / II: [Dab]T[Dap][Dab][Dab][dL]L[Dab][Dab]T; disulfide I:2-I:11; amide I:5-II:N; lactam II:4-II:C)	0.125 (≈ 0.053 µM)	0.0625 (≈ 0.0265 µM)	0.0625 (≈ 0.0265 µM)	0.125 (≈ 0.053 µM)	0.0625 (≈ 0.0265 µM)	0.25 (≈ 0.106 µM)	0.0625 (≈ 0.0265 µM)	0.125 (≈ 0.053 µM)	<1	0/3 died at 2 × 30 mg/kg

From US11629171B2, “Beta-hairpin peptidomimetics” (POLYPHOR AG, priority 2017, dated 2023)
